Experimental data as given in PubChem BioAssay (NCI).
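A five-concentration, 48-hour dose response in 96-well plates underlies each endpoint, interpolated linearly between surrounding concentrations. Abbreviation: GI50, concentration required for 50% inhibition of growth. TGI: concentration producing complete growth inhibition.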

How the values were obtained:
Assay in all cases: NCI anticancer screen, dose series, 48 h
[1] = tested on: SF-539 CNS
[2] = tested on: RPMI-8226 leukemia
[3] = tested on: EKVX NSCLC
[4] = tested on: MOLT-4 leukemia
[5] = tested on: UACC-257 melanoma
[6] = tested on: SK-MEL-28 melanoma
[7] = tested on: M14 melanoma
[8] = tested on: PC-3 prostate
[9] = tested on: U251 CNS
[10] = tested on: HS 578T breast
[11] = tested on: SR leukemia
[12] = tested on: OVCAR-4 ovarian
[13] = tested on: SN12C renal
[14] = tested on: T-47D breast
[15] = tested on: HOP-62 NSCLC
[16] = tested on: MCF7 breast
[17] = tested on: NCI-H23 lung
[18] = tested on: RXF 393 renal
[19] = tested on: SF-295 CNS
[20] = tested on: SNB-75 CNS
[21] = tested on: NCI/ADR-RES ovarian
[22] = tested on: LOX IMVI melanoma
[23] = tested on: TK-10 renal
[24] = tested on: UO-31 renal
[25] = tested on: SW-620 colon
[26] = tested on: CCRF-CEM leukemia
[27] = tested on: 786-0 renal
[28] = tested on: OVCAR-3 ovarian
[29] = tested on: NCI-H226 lung
[30] = tested on: K-562 leukemia
[31] = tested on: SK-MEL-5 melanoma
[32] = tested on: BT-549 breast
[33] = tested on: NCI-H460 lung
[34] = tested on: HCC-2998 colon
[35] = tested on: SK-MEL-2 melanoma
[36] = tested on: MDA-MB-231 breast
[37] = tested on: SF-268 CNS
[38] = tested on: KM12 colon
[39] = tested on: MALME-3M melanoma
[40] = tested on: DU-145 prostate
[41] = tested on: ACHN renal
[42] = tested on: OVCAR-5 ovarian
[43] = tested on: OVCAR-8 ovarian
[44] = tested on: A549 NSCLC
[45] = tested on: HCT-116 colon
[46] = tested on: UACC-62 melanoma
[47] = tested on: SNB-19 CNS
[48] = tested on: COLO 205 colon
[49] = tested on: NCI-H522 lung
[50] = tested on: A498 renal
[51] = tested on: HOP-92 NSCLC
[52] = tested on: HCT-15 colon
[53] = tested on: SK-OV-3 ovarian
[54] = tested on: HT29 colon
[55] = tested on: HL-60(TB) leukemia
[56] = tested on: MDA-MB-435
[57] = tested on: IGROV1 ovarian
[58] = tested on: CAKI-1 renal

## COc1ccc2nc3cc(Cl)ccc3c(Nc3cc(C(C)C)c(O)cc3C)c2c1
[1]
  GI50: 1810 nM
  TGI: 3610 nM
[2]
  GI50: 663 nM
  TGI: 2680 nM
[3]
  GI50: 2220 nM
  TGI: 7750 nM
[4]
  GI50: 1380 nM
  TGI: 4360 nM
[5]
  GI50: 1350 nM
  TGI: 3070 nM
[6]
  GI50: 1910 nM
  TGI: 4050 nM
[7]
  GI50: 1740 nM
  TGI: 3310 nM
[8]
  GI50: 1700 nM
  TGI: 4790 nM
[9]
  GI50: 1790 nM
  TGI: 3530 nM
[10]
  GI50: 1610 nM
  TGI: 3400 nM
[11]
  GI50: 703 nM
  TGI: 12000 nM
[12]
  GI50: 2500 nM
  TGI: 9460 nM
[13]
  GI50: 2550 nM
  TGI: 7420 nM
[14]
  GI50: 1920 nM
  TGI: 4680 nM
[15]
  GI50: 1910 nM
  TGI: 3480 nM
[16]
  GI50: 1660 nM
  TGI: 3960 nM
[17]
  GI50: 2200 nM
  TGI: 6020 nM
[18]
  GI50: 1280 nM
  TGI: 2900 nM
[19]
  GI50: 1360 nM
  TGI: 3010 nM
[20]
  GI50: 2160 nM
  TGI: 7610 nM
[21]
  GI50: 2760 nM
  TGI: 8010 nM
[22]
  GI50: 1790 nM
  TGI: 3300 nM
[23]
  GI50: 1750 nM
  TGI: 6650 nM
[24]
  GI50: 1490 nM
  TGI: 2980 nM
[25]
  GI50: 1770 nM
  TGI: 3370 nM
[26]
  GI50: 2080 nM
  TGI: 6630 nM
[27]
  GI50: 1640 nM
  TGI: 3050 nM
[28]
  GI50: 1690 nM
  TGI: 3260 nM
[29]
  GI50: 2230 nM
  TGI: 6640 nM
[30]
  GI50: 2020 nM
  TGI: > 100000 nM
[31]
  GI50: 1610 nM
  TGI: 3100 nM
[32]
  GI50: 588 nM
  TGI: 2890 nM
[33]
  GI50: 1710 nM
  TGI: 3450 nM
[34]
  GI50: 2220 nM
  TGI: 5580 nM
[35]
  GI50: 1850 nM
  TGI: 3750 nM
[36]
  GI50: 1820 nM
  TGI: 3970 nM
[37]
  GI50: 2350 nM
  TGI: 6860 nM
[38]
  GI50: 2200 nM
  TGI: 4670 nM
[39]
  GI50: 1790 nM
  TGI: 4400 nM
[40]
  GI50: 2480 nM
  TGI: 6970 nM
[41]
  GI50: 2220 nM
  TGI: 5080 nM
[42]
  GI50: 3030 nM
  TGI: 9480 nM
[43]
  GI50: 2060 nM
  TGI: 4470 nM
[44]
  GI50: 2260 nM
  TGI: 6980 nM
[45]
  GI50: 1590 nM
  TGI: 2950 nM
[46]
  GI50: 1720 nM
  TGI: 3500 nM
[47]
  GI50: 2970 nM
  TGI: 12700 nM
[48]
  GI50: 1810 nM
  TGI: 3640 nM
[49]
  GI50: 1790 nM
  TGI: 3650 nM
[50]
  GI50: 2050 nM
  TGI: 6580 nM
[51]
  GI50: 1160 nM
  TGI: 3110 nM
[52]
  GI50: 1700 nM
  TGI: 3620 nM
[53]
  GI50: 2390 nM
  TGI: 6880 nM
[54]
  GI50: 2310 nM
  TGI: 6070 nM
[55]
  GI50: 1310 nM
[56]
  GI50: 1800 nM
  TGI: 4480 nM
[57]
  GI50: 1550 nM
  TGI: 3350 nM
[58]
  GI50: 2100 nM
  TGI: 5420 nM
